Data taken from patent US5556744A, “Methods and compositions for diagnosing and treating certain HIV infected patients” (The Trustees of the University of Pennsylvania, priority 1994, dated 1996).

Legend:
Parameters in all cases: species or system human
[1] = tested on: sera samples (antibodies); assay: ELISA peptide-binding of maternal sera, MN strain peptides (Example 7); conditions: for % Bound, Non-Transmitter / No. of Sera Samples Bound, Non-Transmitter / % Bound, Transmitter / No. of Sera Samples Bound, Transmitter: n = 5
Method: This example provides additional sera screens using peptides corresponding to sequences of the MN strain. The sera samples (5 transmitters and 5 non-transmitters) were obtained from the NIH and differ from those screened in the previous studies. Peptide binding was analyzed by ELISA as described in Example 3.

[2] = tested on: maternal HIV+ sera (antibodies); assay: RIA / ELISA binding of maternal HIV+ sera to gp120 and gp41 peptides (Example 3)
Method in brief: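 Peptides were coated at 10 μg/ml in carbonate buffer pH 9.6 and blocked with 1% BSA. Sera at 1:50 and 1:500 were incubated overnight at 4°C and detected with ¹²⁵I anti-human IgG (RIA) or HRP/TMB at OD450 (ELISA). Specific binding was taken as peptide minus no-peptide wells, scored as a ratio to normal human serum.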

[3] = tested on: maternal sera (antibodies); assay: ELISA peptide-binding of maternal sera (Example 6)
Method in brief: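 Third-trimester maternal sera, from HIV-1 transmitting and non-transmitting mothers, were tested by ELISA against ~16-residue peptides spanning HIV-1 external and transmembrane glycoproteins. Each serum was run with at least 40 peptides, and values are the percentage of sera binding each peptide.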

[4] = Serum No. 1, Non-Transmission Group
[5] = Serum No. 2, Non-Transmission Group
[6] = Serum No. 3, Non-Transmission Group
[7] = Serum No. 4, Transmission Group
[8] = Serum No. 5, Transmission Group
[9] = Serum No. 6, Non-Transmission Group
[10] = Serum No. 7, Non-Transmission Group
[11] = Serum No. 8, Non-Transmission Group
[12] = Serum No. 9, Non-Transmission Group
[13] = Serum No. 10, Transmission Group
[14] = Serum No. 11, Non-Transmission Group
[15] = Serum No. 12, Non-Transmission Group
[16] = Serum No. 13, Transmission Group
[17] = Serum No. 14, Transmission Group
[18] = Serum No. 15, Transmission Group
[19] = Serum No. 16, Non-Transmission Group
[20] = Serum No. 17, Non-Transmission Group
[21] = Serum No. 18, Non-Transmission Group
[22] = Serum No. 19, Transmission Group
[23] = Serum No. 20, Non-Transmission Group

Substance: ELDKWASLWNWFNITNWLWY [Peptide 53]
- % Bound, Non-Transmitter [1]: 0%
- No. of Sera Samples Bound, Non-Transmitter [1]: 0
- % Bound, Transmitter [1]: 0%
- No. of Sera Samples Bound, Transmitter [1]: 0
- Binding of maternal HIV+ serum to peptide (sera/NHS ratio) [2, 4]: - (specific OD450 or cpm of sera sample binding to peptide divided by the specific OD450 or cpm of NHS sample binding to peptide, which value is less than 2)
- Binding of maternal HIV+ serum to peptide (sera/NHS ratio) [2, 5]: - (specific OD450 or cpm of sera sample binding to peptide divided by the specific OD450 or cpm of NHS sample binding to peptide, which value is less than 2)
- Binding of maternal HIV+ serum to peptide (sera/NHS ratio) [2, 6]: - (specific OD450 or cpm of sera sample binding to peptide divided by the specific OD450 or cpm of NHS sample binding to peptide, which value is less than 2)
- Binding of maternal HIV+ serum to peptide (sera/NHS ratio) [2, 7]: - (specific OD450 or cpm of sera sample binding to peptide divided by the specific OD450 or cpm of NHS sample binding to peptide, which value is less than 2)
- Binding of maternal HIV+ serum to peptide (sera/NHS ratio) [2, 8]: - (specific OD450 or cpm of sera sample binding to peptide divided by the specific OD450 or cpm of NHS sample binding to peptide, which value is less than 2)
- Binding of maternal HIV+ serum to peptide (sera/NHS ratio) [2, 9]: - (specific OD450 or cpm of sera sample binding to peptide divided by the specific OD450 or cpm of NHS sample binding to peptide, which value is less than 2)
- Binding of maternal HIV+ serum to peptide (sera/NHS ratio) [2, 10]: ++ (which value is greater than 3)
- Binding of maternal HIV+ serum to peptide (sera/NHS ratio) [2, 11]: - (specific OD450 or cpm of sera sample binding to peptide divided by the specific OD450 or cpm of NHS sample binding to peptide, which value is less than 2)
- Binding of maternal HIV+ serum to peptide (sera/NHS ratio) [2, 12]: - (specific OD450 or cpm of sera sample binding to peptide divided by the specific OD450 or cpm of NHS sample binding to peptide, which value is less than 2)
- Binding of maternal HIV+ serum to peptide (sera/NHS ratio) [2, 13]: - (specific OD450 or cpm of sera sample binding to peptide divided by the specific OD450 or cpm of NHS sample binding to peptide, which value is less than 2)
- Binding of maternal HIV+ serum to peptide (sera/NHS ratio) [2, 14]: - (specific OD450 or cpm of sera sample binding to peptide divided by the specific OD450 or cpm of NHS sample binding to peptide, which value is less than 2)
- Binding of maternal HIV+ serum to peptide (sera/NHS ratio) [2, 15]: - (specific OD450 or cpm of sera sample binding to peptide divided by the specific OD450 or cpm of NHS sample binding to peptide, which value is less than 2)
- Binding of maternal HIV+ serum to peptide (sera/NHS ratio) [2, 16]: - (specific OD450 or cpm of sera sample binding to peptide divided by the specific OD450 or cpm of NHS sample binding to peptide, which value is less than 2)
- Binding of maternal HIV+ serum to peptide (sera/NHS ratio) [2, 17]: - (specific OD450 or cpm of sera sample binding to peptide divided by the specific OD450 or cpm of NHS sample binding to peptide, which value is less than 2)
- Binding of maternal HIV+ serum to peptide (sera/NHS ratio) [2, 18]: - (specific OD450 or cpm of sera sample binding to peptide divided by the specific OD450 or cpm of NHS sample binding to peptide, which value is less than 2)
- Binding of maternal HIV+ serum to peptide (sera/NHS ratio) [2, 19]: - (specific OD450 or cpm of sera sample binding to peptide divided by the specific OD450 or cpm of NHS sample binding to peptide, which value is less than 2)
- Binding of maternal HIV+ serum to peptide (sera/NHS ratio) [2, 20]: + (which value is between 2 to 3)
- Binding of maternal HIV+ serum to peptide (sera/NHS ratio) [2, 21]: - (specific OD450 or cpm of sera sample binding to peptide divided by the specific OD450 or cpm of NHS sample binding to peptide, which value is less than 2)
- Binding of maternal HIV+ serum to peptide (sera/NHS ratio) [2, 22]: - (specific OD450 or cpm of sera sample binding to peptide divided by the specific OD450 or cpm of NHS sample binding to peptide, which value is less than 2)
- Binding of maternal HIV+ serum to peptide (sera/NHS ratio) [2, 23]: - (specific OD450 or cpm of sera sample binding to peptide divided by the specific OD450 or cpm of NHS sample binding to peptide, which value is less than 2)
- Number of Non-Transmitters which bound to peptide ([3]; Non-Transmitters, N = 12): 0
- Percent of Non-Transmitters which bound to peptide ([3]; Non-Transmitters, N = 12): 0%
- Number of Transmitters which bound to peptide ([3]; Transmitters, N = 4): 0
- Percent of Transmitters which bound to peptide ([3]; Transmitters, N = 4): 0%

Substance: LRIVFAVLSVVNRVRQGYSP [Peptide 55]
- % Bound, Non-Transmitter [1]: 0%
- No. of Sera Samples Bound, Non-Transmitter [1]: 0
- % Bound, Transmitter [1]: 0%
- No. of Sera Samples Bound, Transmitter [1]: 0
- Binding of maternal HIV+ serum to peptide (sera/NHS ratio) [2, 4]: - (specific OD450 or cpm of sera sample binding to peptide divided by the specific OD450 or cpm of NHS sample binding to peptide, which value is less than 2)
- Binding of maternal HIV+ serum to peptide (sera/NHS ratio) [2, 5]: - (specific OD450 or cpm of sera sample binding to peptide divided by the specific OD450 or cpm of NHS sample binding to peptide, which value is less than 2)
- Binding of maternal HIV+ serum to peptide (sera/NHS ratio) [2, 6]: - (specific OD450 or cpm of sera sample binding to peptide divided by the specific OD450 or cpm of NHS sample binding to peptide, which value is less than 2)
- Binding of maternal HIV+ serum to peptide (sera/NHS ratio) [2, 7]: - (specific OD450 or cpm of sera sample binding to peptide divided by the specific OD450 or cpm of NHS sample binding to peptide, which value is less than 2)
- Binding of maternal HIV+ serum to peptide (sera/NHS ratio) [2, 8]: - (specific OD450 or cpm of sera sample binding to peptide divided by the specific OD450 or cpm of NHS sample binding to peptide, which value is less than 2)
- Binding of maternal HIV+ serum to peptide (sera/NHS ratio) [2, 9]: - (specific OD450 or cpm of sera sample binding to peptide divided by the specific OD450 or cpm of NHS sample binding to peptide, which value is less than 2)
- Binding of maternal HIV+ serum to peptide (sera/NHS ratio) [2, 10]: - (specific OD450 or cpm of sera sample binding to peptide divided by the specific OD450 or cpm of NHS sample binding to peptide, which value is less than 2)
- Binding of maternal HIV+ serum to peptide (sera/NHS ratio) [2, 11]: - (specific OD450 or cpm of sera sample binding to peptide divided by the specific OD450 or cpm of NHS sample binding to peptide, which value is less than 2)
- Binding of maternal HIV+ serum to peptide (sera/NHS ratio) [2, 12]: - (specific OD450 or cpm of sera sample binding to peptide divided by the specific OD450 or cpm of NHS sample binding to peptide, which value is less than 2)
- Binding of maternal HIV+ serum to peptide (sera/NHS ratio) [2, 13]: - (specific OD450 or cpm of sera sample binding to peptide divided by the specific OD450 or cpm of NHS sample binding to peptide, which value is less than 2)
- Binding of maternal HIV+ serum to peptide (sera/NHS ratio) [2, 14]: - (specific OD450 or cpm of sera sample binding to peptide divided by the specific OD450 or cpm of NHS sample binding to peptide, which value is less than 2)
- Binding of maternal HIV+ serum to peptide (sera/NHS ratio) [2, 15]: - (specific OD450 or cpm of sera sample binding to peptide divided by the specific OD450 or cpm of NHS sample binding to peptide, which value is less than 2)
- Binding of maternal HIV+ serum to peptide (sera/NHS ratio) [2, 16]: - (specific OD450 or cpm of sera sample binding to peptide divided by the specific OD450 or cpm of NHS sample binding to peptide, which value is less than 2)
- Binding of maternal HIV+ serum to peptide (sera/NHS ratio) [2, 17]: - (specific OD450 or cpm of sera sample binding to peptide divided by the specific OD450 or cpm of NHS sample binding to peptide, which value is less than 2)
- Binding of maternal HIV+ serum to peptide (sera/NHS ratio) [2, 18]: - (specific OD450 or cpm of sera sample binding to peptide divided by the specific OD450 or cpm of NHS sample binding to peptide, which value is less than 2)
- Binding of maternal HIV+ serum to peptide (sera/NHS ratio) [2, 19]: - (specific OD450 or cpm of sera sample binding to peptide divided by the specific OD450 or cpm of NHS sample binding to peptide, which value is less than 2)
- Binding of maternal HIV+ serum to peptide (sera/NHS ratio) [2, 20]: - (specific OD450 or cpm of sera sample binding to peptide divided by the specific OD450 or cpm of NHS sample binding to peptide, which value is less than 2)
- Binding of maternal HIV+ serum to peptide (sera/NHS ratio) [2, 21]: - (specific OD450 or cpm of sera sample binding to peptide divided by the specific OD450 or cpm of NHS sample binding to peptide, which value is less than 2)
- Binding of maternal HIV+ serum to peptide (sera/NHS ratio) [2, 22]: - (specific OD450 or cpm of sera sample binding to peptide divided by the specific OD450 or cpm of NHS sample binding to peptide, which value is less than 2)
- Binding of maternal HIV+ serum to peptide (sera/NHS ratio) [2, 23]: - (specific OD450 or cpm of sera sample binding to peptide divided by the specific OD450 or cpm of NHS sample binding to peptide, which value is less than 2)

Substance: MN-19: gp41 peptide, amino acids 531-540, HIV strain MN, SEQ ID NO: 169 (MGAASVTLTV)
- % Bound, Non-Transmitter [1]: 20%
- No. of Sera Samples Bound, Non-Transmitter [1]: 1
- % Bound, Transmitter [1]: 20%
- No. of Sera Samples Bound, Transmitter [1]: 1

Substance: MN-13: gp41 peptide, amino acids 619-637, HIV strain MN, SEQ ID NO: 166
- % Bound, Non-Transmitter [1]: 60%
- No. of Sera Samples Bound, Non-Transmitter [1]: 3
- % Bound, Transmitter [1]: 0%
- No. of Sera Samples Bound, Transmitter [1]: 0

Substance: MN-12: gp41 peptide, amino acids 830-842, HIV strain MN, SEQ ID NO: 197
- % Bound, Non-Transmitter [1]: 0%
- No. of Sera Samples Bound, Non-Transmitter [1]: 0
- % Bound, Transmitter [1]: 0%
- No. of Sera Samples Bound, Transmitter [1]: 0

Substance: HIPTRIRQGLERALL [MN-11]
- Correlation of peptide binding with non-transmission (in words) ([1]; Example 7): selectively correlate with non-transmission
- % Bound, Non-Transmitter [1]: 60%
- No. of Sera Samples Bound, Non-Transmitter [1]: 3
- % Bound, Transmitter [1]: 0%
- No. of Sera Samples Bound, Transmitter [1]: 0
